Tests used:
[1] = test system: cord-blood CD34^+ cells (HSC); assay: Human immune engraftment (% hCD45) in irradiated NSG mice injected with the progeny of ex vivo cultured cord-blood CD34+ cells
Description: The progeny of 7,500 cord-blood CD34+ cells was cultured under modified air-liquid interface (ALI) conditions for 10 days and injected in irradiated adult NSG mice. Cells were cultured in cytokine-containing (SCF, TPO, FLT-3L) serum-free media (StemSpan™ SFEM, LDL) containing UM729 (40 nM) with or without the addition of aryl hydrocarbon receptor (AhR) receptor antagonist CH-223191 (1 μM). Human immune reconstitution, expressed by the percentage of human CD45 (hCD45) over total CD45, was monitored in peripheral blood after 7, 14 and 25 weeks post-transplantation by flow cytometry. Mean percentage of human CD45 cell engraftment for 2 mice per condition is shown. […]
Since the ultimate aim is to improve the expansion of engraftable human HSC, the validation methods largely rely on the measurement of immune reconstitution, both short-term and long-term, after transplantation in a humanized mice model. Briefly, NSG mice (Jackson Laboratories, strain 005557) were sublethally irradiated at 2Gy 4 to 24 hours prior to CD34^+ cells intravenous (IV) injection. All harvested cells from 1 culture well were injected into one mouse. Wells from all conditions started with equal numbers of CD34^+ cells from the same source/donor. Therefore, all the progeny of a culture setting was injected into mice. Peripheral blood of humanized mice was harvested every 5 weeks, and human engraftment and immune reconstitution were analyzed by flow cytometry. The earliest point where human engraftment in mice was measured was after 5 weeks and the latest after 35 weeks. The impact of the ALI culture system on HSC engraftment capacity was assessed using base media purchased from STEMCELL Technologies (StemSpan SFEM). A dramatic effect of the ALI methodology on the engraftment of cord-blood HSC was observed relative to the published manual fed-batch culture methodology^4, which includes SCF, TPO, FLT3L and UM171 (FIG. 4).

[2] = test system: Cord-blood CD34^+ cells; assay: Ex vivo expansion of the CD34+ population from cord-blood CD34+ cells, counted by flow cytometry; format: cell-based, human; settings: for expansion in CD34^+ population: UM171 40 nM, 10 days, SCF/TPO/FLT-3L StemSpan SFEM II
Description: Cord-blood CD34^+ cells were cultured under manual fed-batch (FB) or modified air-liquid interface (ALI) conditions for 10 days. Cells were cultured in cytokine-containing (SCF, TPO, FLT-3L) serum-free media (StemSpan™ SFEM II) where UM171 (40 nM) was added. CD34^+ cells total number was assessed by flow cytometry using […] beads (BD).
The progeny of 7,500 cord-blood CD34^+ cells was cultured under manual fed-batch (FB) conditions for 6 days and injected in irradiated adult NSG mice. Cells were cultured in cytokine-containing (SCF, TPO, FLT-3L) serum-free media (StemSpan SFEM II) where UM729 (500 nM) or a HTR1F-specific agonist LY573144 (250 nM final concentration) was added. The progeny of an equal number of CD34^+ cells cultured in the same conditions but without UM729 or LY573144 from the same source was used to determine baseline expansion (threshold indicated by the dotted line) and engraftment. Expansion fold, compared to untreated condition, of the CD34^+ population after 6 days of ex vivo culture is shown in the left panel. Human immune reconstitution was monitored in peripheral blood (middle panel) and bone marrow (right panel) at week 25 post-transplantation as described above. Mean percentage of human CD45 cell engraftment for 2 mice per condition is shown.
An experimental setup was designed where oxygen exchange in the media would be maximized, while adopting the principles of fed-batch cultures (FB) in which medium is renewed and in sufficient quantity to provide nutrients while diluting cell waste. […] In doing so, the maximum of cells was placed directly at the air-liquid interface so that gas exchanges are more efficient. Briefly, HSC were enriched based on CD34 expression marker, from cord-blood units using the Miltenyi CD34 MicroBead Kit UltraPure according to manufacturer's instruction. Purity was determined by flow cytometry using monoclonal CD34-PE antibodies (Clone 581, BD Pharmingen, 555822). […]
Using this culture method, the expansion of the stem cell population (defined as CD34^+ cells) in the culture wells after 10 days was first assessed. […]

[3] = test system: human CB CD34+ (HSC engraftment); assay: In vivo administration of HTR1F agonist to NSG mice humanized with uncultured cord-blood CD34+ cells; human chimerism by flow cytometry; settings: 0.3 mg (10 mg/kg) intraperitoneally at 6 h, 24 h, 48 h
Description: 38,000 human CB CD34+ were injected intravenously into irradiated NSG mice (n=8, 16 hrs after irradiation). Starting from 6 hours post-transplantation, half of the mice (n=4) received, by intraperitoneal injection, 0.3 mg of Lasmiditan diluted in 0.02% DMSO in PBS (drug), for a total of 4 doses in regular intervals (6 h, 24 h, 48 h and 72 h) after human HSC injection. The second half (control) received I.P. injection of vehicle (0.02% DMSO in PBS) (n=4; vehicle). Human chimerism was assessed on peripheral blood until 19 weeks post-transplantation as described above, after which time mice were sacrificed and spleen and bone marrow were analyzed. SEM are depicted.
Lasmiditan, purchased from AdooQ Bioscience (product number A14198), was dissolved in DMSO and ethanol solution. […] Purity and viability were assessed by flow cytometry using the following staining: CD34-APC (Biolegend 343510), CD19-PE (Biolegend, 302208), CD3-PE-Cy7 (Biolegend, 344816), CD45-APC-Cy7 (Biolegend, 368516), 7-AAD (BD Biosciences, 559925), 1 μL AnnV-FITC (Biolegend, 640906). […] The dose was determined based on previous work with LY344864 (used ex vivo above, FIG. 10) in kidney injury recovery studies^16 and is consistent with the dosage of Reyvow® (Lasmiditan) for the treatment of migraine. […]

[4] = progeny of FB culture with LY573144 250 nM for 6 days, 25 weeks after injection

N[C@@H](Cc1cc(I)c(Oc2ccc(O)c(I)c2)c(I)c1)C(=O)O [T3, triiodothyronine]
engraftment of HSC in humanized mice (% hCD45+ lymphocytes in peripheral blood) ([1]; T3 45 ng/mL in SCF/TPO/FLT3L StemSpan SFEM containing UM171, FB culture 10 days, vs UM171 alone or with CH-223191): increased the engraftment of HSC

CN(C)[C@@H]1CCc2[nH]c3ccc(NC(=O)c4ccc(F)cc4)cc3c2C1.Cl [LY344864, N-[(3R)-3-(Dimethylamino)-2,3,4,9-tetrahydro-1H-carbazol-6-yl]-4-fluorobenzamide hydrochloride]
peripheral blood engraftment (% hCD45) ([1]; LY344864 500 nM in StemSpan SFEM II with SCF/TPO/FLT-3L, 10 days, specifically ALI culture, vs media alone): greatly improved the peripheral blood engraftment

CN1CCC(C(=O)c2cccc(NC(=O)c3c(F)cc(F)cc3F)n2)CC1 [LY573144, 2,4,6-Trifluoro-N-[6-[(1-methyl-4-piperidinyl)carbonyl]-2-pyridinyl]benzamide]
percentage of hCD45^+ cells in the blood [1, 4]: higher percentages | percentage of hCD45^+ cells in the bone marrow [1, 4]: higher percentages | expansion of the CD34^+ population compared to untreated condition ([2]; LY573144 250 nM, FB culture, 6 days): two-fold | presence of human immune cells (hCD45^+) in tissues of treated animals ([3]; 72 h, analysed up to 19 weeks): found in blood, spleen and bone marrow | reconstitution of the immune compartment (human chimerism) ([3]; 72 h after 38,000 CD34+ cells, followed to 19 weeks, vs vehicle): more robust reconstitution of the immune compartment

Cn1nnc(-c2ccc3c(c2)[nH]c2nc(Cc4ccccc4)nc(NC4CCC(N)CC4)c23)n1 (stereo not shown) [UM171]
expansion in CD34^+ population ([2]; ALI culture): ~55 fold | expansion in CD34^+ population ([2]; fed-batch (FB) culture): ~55 fold

Cc1ccccc1N=Nc1ccc(NC(=O)c2ccnn2C)c(C)c1 [CH-223191]
engraftment capacity of cultured HSC (% hCD45 in peripheral blood) ([1]; CH-223191 1 μM added to ALI culture containing UM729, 10 days, blood at 7, 14 and 25 weeks, vs without CH-223191): did not further increase the engraftment capacity
